From ChEMBL document CHEMBL3085775, “Design, diversity-oriented synthesis and structure activity relationship studies of quinolinyl heterocycles as antimycobacterial agents” (Eur J Med Chem, 2013) come the findings set out here.

pIC50: −log10 of the molar value. In brackets after ≈: the same amount, converted by molar mass.

The subject of assay [1] is Mycolicibacterium smegmatis. Briefly: Antimycobacterial activity against Mycobacterium smegmatis MC2 155 ATCC 14468 after 32 hrs by turbidimetry. The format is functional. The following applies: MC2 155 ATCC 14468, 32 h.
A further assay relates to A549. Briefly: Cytotoxicity against human A549 cells after 48 hrs by MTT assay. The note with it: A549, 48 h. Type of assay: cell-based. In general terms: Tetrazolium dyes change colour on reduction, which living cells bring about.

A word on the MIC50: it is an inhibitory concentration at the 50% level, which refers to growth in some studies and to a panel of isolates in others. A word on the pIC50: it is the IC50 on a negative log10 scale, so that one unit is a factor of ten. Usually MIC90 stands for the lowest concentration that inhibits either 90% of growth or 90% of the strains tested, depending on the study. Read a high MIC90 as lower susceptibility. One may read the IC50 as the concentration needed to halve the response being measured. A high value points to lower potency.

On to `Cc1nc2ccccc2cc1-c1cc[nH]n1`, for which the MIC50 in assay [1] was found to be 14.7 µg/mL (≈ 70.1 µM). Also, in the assay on A549, the pIC50 was 3.86.

As to `Cc1nc2ccccc2cc1C(=O)NN`, in assay [1], the MIC50 was above 50 µg/mL. Also, the pIC50 in the assay on A549 is 4.02.

The compound `Cc1nc2ccccc2cc1-c1ccnc(N)n1` showed an MIC50 in assay [1] above 50 µg/mL. Besides, in the assay on A549, the pIC50 was 4.03.

With `Cc1nc2ccccc2cc1-c1csc(N)n1`, the MIC50 in assay [1] is above 50 µg/mL. This compound also had a pIC50 in the assay with A549 below 3.70.

For the compound `Cc1nc2ccccc2cc1-c1cn2ccccc2n1`, the MIC50 in assay [1] was above 50 µg/mL. Besides, the pIC50 in the assay with A549 is 3.93.

`Cc1nc2ccccc2cc1-c1nnc(CCc2ccccc2)o1`: the MIC50 in assay [1] is 35 µg/mL (≈ 111 µM). This compound showed a pIC50 in the assay on A549 of 3.84.

Turning to `COc1cc(OC)c(C2CC(c3cc4ccccc4nc3C)=NN2C(C)=O)c(OC)c1` (centres undefined), in assay [1], the MIC50 came out at 57.9 µg/mL (≈ 138 µM). In the assay with A549, this compound had a pIC50 of 3.77.

Take `Cc1nc2ccccc2cc1-c1nnc(C(C)c2ccccc2)o1` (centres undefined): the MIC90 in assay [1] amounted to 35.9 µg/mL (≈ 114 µM). Besides, the IC50 in the assay with A549 was 165 µg/mL.

In assay [1], `Cc1ccc(-c2nnc(-c3cc4ccccc4nc3C)o2)cc1` came in with an MIC90 of 35 µg/mL (≈ 116 µM). Moreover, the IC50 with A549 turned out to be 175 µg/mL.

Turning to `Cc1nc2ccccc2cc1-c1nnc(-c2cccc(Oc3ccccc3)c2)o1`, the MIC90 in assay [1] is above 70 µg/mL. Also, the IC50 with A549 worked out at 146 µg/mL.

Consider `CCCCCc1nnc(-c2cc3ccccc3nc2C)o1`, for which the MIC90 in assay [1] was above 70 µg/mL. In addition, half-maximal inhibition in the assay on A549 (IC50) was put at 72.2 µg/mL.

`Cc1nc2ccccc2cc1-c1nnc(-c2ccc(C(C)C)cc2)o1`: the MIC90 in assay [1] came out at 41 µg/mL (≈ 125 µM). Besides, the IC50 in the assay with A549 was found to be 103 µg/mL.

The compound `COc1ccc(OC)c(-c2nnc(-c3cc4ccccc4nc3C)o2)c1` showed an MIC90 in assay [1] of 29.2 µg/mL (≈ 84 µM). Also, in the assay on A549, the midpoint of inhibition, the IC50, lay at 134 µg/mL.

The compound `COc1cc(-c2nnc(-c3cc4ccccc4nc3C)o2)cc(OC)c1OC` gave an MIC90 in assay [1] of 61.9 µg/mL (≈ 164 µM). Besides, the IC50 with A549 amounted to 113 µg/mL.

`Cc1nc2ccccc2cc1-c1nnc(-c2ccccc2C(=O)O)o1` showed an MIC90 in assay [1] of 43.3 µg/mL (≈ 131 µM). Moreover, the IC50 in the assay on A549 stood at 106 µg/mL.

Compound `Cc1nc2ccccc2cc1-c1nnc(-c2cccnc2)o1` gave an MIC90 in assay [1] of 22.7 µg/mL (≈ 78.8 µM). The compound also showed an IC50 with A549 of 139 µg/mL.

In turn, `Cc1nc2ccccc2cc1-c1nnc(-c2ccc(F)c(C(F)(F)F)c2)o1` returned an MIC90 in assay [1] of 47.5 µg/mL (≈ 127 µM). In the assay on A549, the IC50 was found to be 93.3 µg/mL.

`Cc1nc2ccccc2cc1-c1nnc(-c2ccc(OC(F)(F)F)cc2)o1` had an MIC90 in assay [1] above 70 µg/mL. This compound also showed an IC50 in the assay on A549 of 91.1 µg/mL.

In assay [1], `Cc1nc2ccccc2cc1-c1nnc(-c2coc3ccccc3c2=O)o1` registered an MIC90 of 16.8 µg/mL (≈ 47.4 µM). Further, in the assay on A549, half-maximal inhibition (IC50) required 111 µg/mL.

In the case of `Cc1nc2ccccc2cc1-c1nnc(-c2cccs2)o1`, the MIC90 in assay [1] amounted to 39.7 µg/mL (≈ 135 µM). This compound also returned an IC50 with A549 of 99.4 µg/mL.

As to `Cc1nc2ccccc2cc1-c1nnc(-c2cn(-c3ccccc3)nc2-c2ccccc2)o1`, the MIC90 in assay [1] is above 70 µg/mL. The compound further yielded an IC50 in the assay on A549 above 200 µg/mL.

Compound `CC(=O)N1N=C(c2cc3ccccc3nc2C)CC1c1ccc(C#N)cc1` (centres undefined) had an MIC90 in assay [1] above 70 µg/mL. Moreover, the IC50 in the assay on A549 was above 200 µg/mL.

In assay [1], `CC(=O)N1N=C(c2cc3ccccc3nc2C)CC1c1ccc(N(C)C)cc1` (centres undefined) showed an MIC90 above 70 µg/mL. The compound also came in with an IC50 in the assay with A549 of 110 µg/mL.

In assay [1], `COc1ccc(C2CC(c3cc4ccccc4nc3C)=NN2C(C)=O)cc1` (centres undefined) came in with an MIC90 above 70 µg/mL. Further, in the assay on A549, the IC50 was 116 µg/mL.

The compound `COc1ccc(OC)c(C2CC(c3cc4ccccc4nc3C)=NN2C(C)=O)c1` (centres undefined) displayed an MIC90 in assay [1] above 70 µg/mL. It took 111 µg/mL to reach half-maximal inhibition in the assay on A549 (IC50).

As to `COc1cc(C2CC(c3cc4ccccc4nc3C)=NN2C(C)=O)cc(OC)c1OC` (centres undefined), the MIC90 in assay [1] came to 52.1 µg/mL (≈ 124 µM). The compound also showed an IC50 in the assay with A549 above 200 µg/mL.

Turning to `COc1ccc(C2CC(c3cc4ccccc4nc3C)=NN2C(C)=O)c(OC)c1OC` (centres undefined), the MIC90 in assay [1] turned out to be 46.2 µg/mL (≈ 110 µM). In the assay with A549, this compound registered an IC50 of 86.5 µg/mL.

For the compound `COc1ccc(C2CC(c3cc4ccccc4nc3C)=NN2C(C)=O)cc1OC` (centres undefined), the MIC90 in assay [1] was above 70 µg/mL. Further, the IC50 in the assay on A549 was above 200 µg/mL.

The compound `CC(=O)N1N=C(c2cc3ccccc3nc2C)CC1/C=C/c1ccccc1` (centres undefined) gave an MIC90 in assay [1] above 70 µg/mL. Besides, half-maximal inhibition in the assay on A549 (IC50) was put at 93.3 µg/mL.

`CC(=O)N1N=C(c2cc3ccccc3nc2C)CC1c1ccc([N+](=O)[O-])cc1` (centres undefined) showed an MIC90 in assay [1] of 50.7 µg/mL (≈ 135 µM). Moreover, in the assay on A549, the IC50 is above 200 µg/mL.

`CC(=O)N1N=C(c2cc3ccccc3nc2C)CC1c1cccc(Oc2nc(Cl)c(Cl)cc2Cl)c1` (centres undefined) had an MIC90 in assay [1] of 64.9 µg/mL (≈ 123 µM). Also, the IC50 with A549 is 72.7 µg/mL.

Turning to `CC(=O)N1N=C(c2cc3ccccc3nc2C)CC1c1ccc(Oc2nc(Cl)c(Cl)cc2Cl)cc1` (centres undefined), the MIC90 in assay [1] was above 70 µg/mL. Also, in the assay on A549, the IC50 was above 200 µg/mL.

The compound `CCOc1c(F)c(F)c(C2CC(c3cc4ccccc4nc3C)=NN2C(C)=O)c(F)c1F` (centres undefined) gave an MIC90 in assay [1] above 70 µg/mL. The compound further came in with an IC50 in the assay on A549 of 115 µg/mL.

With `CC(=O)N1N=C(c2cc3c(Cl)cccc3nc2C)CC1c1ccc(C)cc1` (centres undefined), the MIC90 in assay [1] is above 70 µg/mL. In the assay with A549, this compound had an IC50 of 166 µg/mL.

On to `Cc1nc2ccccc2cc1C1=NN(c2ccccc2)C(c2ccc(Br)cc2)C1` (centres undefined), for which the MIC90 in assay [1] was above 70 µg/mL. This compound displayed an IC50 with A549 of 93 µg/mL.

In the case of `COc1cc(C2CC(c3cc4ccccc4nc3C)=NN2c2ccccc2)cc(OC)c1OC` (centres undefined), in assay [1], the MIC90 was above 70 µg/mL. Also, the IC50 in the assay on A549 is above 200 µg/mL.

`COc1ccc(C2CC(c3cc4ccccc4nc3C)=NN2c2ccccc2)c(OC)c1OC` (centres undefined) showed an MIC90 in assay [1] of 43.5 µg/mL (≈ 96 µM). The compound further came in with an IC50 in the assay with A549 of 143 µg/mL.

In assay [1], `Cc1cc(C)n(C(=O)c2cc3ccccc3nc2C)n1` returned an MIC90 of 24.1 µg/mL (≈ 90.9 µM). For the same compound, the midpoint of inhibition in the assay on A549, the IC50, lay at 97.9 µg/mL.

Regarding `Cc1nc2ccccc2cc1C(=O)n1nc(C)c(C2CCCCO2)c1C` (centres undefined), the MIC90 in assay [1] is above 70 µg/mL. The same compound had an IC50 in the assay on A549 of 143 µg/mL.

Turning to `CC(=O)n1ccc(-c2cc3ccccc3nc2C)n1`, the MIC90 in assay [1] worked out at 17.3 µg/mL (≈ 69 µM). Moreover, in the assay with A549, 87 µg/mL corresponded to half-maximal inhibition (IC50).

As for `NNC(=O)c1ccncc1` [ISONIAZID], in assay [1], the MIC50 worked out at 12.1 µg/mL (≈ 88 µM) and the MIC90 is 11.8 µg/mL (≈ 85.9 µM).

In assay [1], `CO[C@H]1/C=C/O[C@@]2(C)Oc3c(C)c(O)c4c(O)c(c(/C=N/N5CCN(C)CC5)c(O)c4c3C2=O)NC(=O)/C(C)=C\C=C\[C@H](C)[C@H](O)[C@@H](C)[C@@H](O)[C@@H](C)[C@H](OC(C)=O)[C@@H]1C` [RIFAMPIN] returned an MIC50 of 2.08 µg/mL (≈ 2.53 µM) and an MIC90 of 2.15 µg/mL (≈ 2.61 µM).
